The values below come from ChEMBL document CHEMBL1141687, “Design, syntheses, and structure-activity relationships of novel NPY Y5 receptor antagonists: 2-{3-Oxospiro[isobenzofuran-1(3H),4'-piperidin]-1'-yl}benzimidazole derivatives” (Bioorg Med Chem Lett, 2008).

The source made the active and inactive calls. The rule behind the calls is not given here.

For data set [1], the target named is T1, Neuropeptide Y receptor type 5 (Homo sapiens, UniProt Q15761).
T1 sequence (Q15761 whole entry): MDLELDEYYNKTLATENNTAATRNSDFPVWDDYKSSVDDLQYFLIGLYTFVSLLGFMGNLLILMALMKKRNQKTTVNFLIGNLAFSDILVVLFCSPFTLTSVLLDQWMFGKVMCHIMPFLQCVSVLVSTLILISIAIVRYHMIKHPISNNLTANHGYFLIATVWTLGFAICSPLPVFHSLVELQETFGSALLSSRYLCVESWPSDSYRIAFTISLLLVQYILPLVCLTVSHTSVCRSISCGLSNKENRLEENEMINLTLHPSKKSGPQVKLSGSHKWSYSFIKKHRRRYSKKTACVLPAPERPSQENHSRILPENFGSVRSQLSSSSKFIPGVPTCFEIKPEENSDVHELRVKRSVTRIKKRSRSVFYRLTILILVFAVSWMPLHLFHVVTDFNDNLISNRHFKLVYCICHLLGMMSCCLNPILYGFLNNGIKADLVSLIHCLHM
As to the kind of experiment: Binding affinity to human NPY Y5 receptor transfected in mouse LMtk cells. In kind it is cell-based.

In data set [2] the target is T2, Neuropeptide Y receptor type 1 (Homo sapiens, UniProt P25929).
T2 sequence (P25929 whole entry): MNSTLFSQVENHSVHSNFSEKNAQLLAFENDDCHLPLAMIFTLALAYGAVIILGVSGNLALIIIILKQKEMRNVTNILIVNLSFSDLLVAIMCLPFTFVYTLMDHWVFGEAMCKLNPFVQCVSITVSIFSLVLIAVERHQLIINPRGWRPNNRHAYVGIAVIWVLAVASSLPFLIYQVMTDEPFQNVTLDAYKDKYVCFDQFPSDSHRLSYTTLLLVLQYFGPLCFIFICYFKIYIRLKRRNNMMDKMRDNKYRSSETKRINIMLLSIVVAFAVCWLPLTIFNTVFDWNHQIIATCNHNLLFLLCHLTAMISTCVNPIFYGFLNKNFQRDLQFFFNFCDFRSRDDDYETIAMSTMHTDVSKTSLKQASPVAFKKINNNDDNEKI
Put plainly: Binding affinity to NPY Y1 receptor.

Data set [3] deals with T3, Neuropeptide Y receptor type 2 (Homo sapiens, UniProt P49146).
T3 sequence (P49146 whole entry): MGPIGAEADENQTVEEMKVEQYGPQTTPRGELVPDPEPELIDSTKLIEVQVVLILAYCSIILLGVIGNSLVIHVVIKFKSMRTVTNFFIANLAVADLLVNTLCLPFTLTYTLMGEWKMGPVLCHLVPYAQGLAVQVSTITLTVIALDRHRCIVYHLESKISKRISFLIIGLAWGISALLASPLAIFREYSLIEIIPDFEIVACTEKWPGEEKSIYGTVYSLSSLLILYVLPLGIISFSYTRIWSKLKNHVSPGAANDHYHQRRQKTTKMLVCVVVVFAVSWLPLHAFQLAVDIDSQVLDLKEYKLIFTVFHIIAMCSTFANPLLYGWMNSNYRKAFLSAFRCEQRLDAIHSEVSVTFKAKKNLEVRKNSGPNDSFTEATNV
As to the kind of experiment: Binding affinity to NPY Y2 receptor.

The target of data set [4] is Neuropeptide Y receptor type 4 (Homo sapiens, UniProt P50391). As to the kind of experiment: Binding affinity to NPY Y4 receptor.
For data set [5], the target named is T1, Neuropeptide Y receptor type 5. Put plainly: Antagonist activity at human NPY Y5 receptor transfected in mouse LMtk cells assessed as inhibition of neuropeptide Y-induced increase in […] Ca2+ level. In kind it is functional, cell-based.
The test system of data set [6] is Rattus norvegicus. As to the kind of experiment: Plasma concentration in rat at 10 mg/kg, po after 2 hrs. In kind it is ADME, organism-based. Set-up: dose 10 mg/kg, route oral.
Data set [7] relates to Rattus norvegicus. Put plainly: Plasma concentration in rat at 10 mg/kg, po after 4 hrs. In kind it is ADME, organism-based. Set-up: dose 10 mg/kg, route oral.
Data set [8] can be described thus: in vivo. The note with it: rat, brain and plasma, po, 10 mg/kg.
Description: Ratio of drug level in brain to plasma in rat at 10 mg/kg, po after 2 hrs
The subject of data set [9] is Rattus norvegicus. Put plainly: Suppression of intracerebroventricular injected D-trp34NPY-induced food intake in SD rat at 10 mg/kg, po administered 2 hrs prior to ICV injection measured after 2 hrs of D-trp34NPY challenge. In kind it is functional, organism-based. Set-up: dose 10 mg/kg.

Neuropeptide Y receptor type 4, sequence (P50391 whole entry): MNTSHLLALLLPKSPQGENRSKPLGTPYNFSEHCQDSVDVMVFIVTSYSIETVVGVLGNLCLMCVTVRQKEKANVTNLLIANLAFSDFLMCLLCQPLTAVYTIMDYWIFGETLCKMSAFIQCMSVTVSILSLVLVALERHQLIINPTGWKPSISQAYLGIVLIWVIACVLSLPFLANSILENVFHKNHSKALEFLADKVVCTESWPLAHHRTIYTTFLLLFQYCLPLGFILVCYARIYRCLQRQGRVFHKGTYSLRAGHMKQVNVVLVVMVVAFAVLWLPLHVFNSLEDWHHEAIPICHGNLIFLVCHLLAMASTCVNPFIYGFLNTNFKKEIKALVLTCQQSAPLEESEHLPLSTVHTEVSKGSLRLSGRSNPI

Usually IC50 stands for the concentration that gives 50% inhibition. As for `O=C1OC2(CCN(c3nc4ccccc4[nH]3)CC2)c2ccccc21`, the IC50 in data set [1] was 0.14 µM.
Still for that read-out and setting: then `O=C1OC2(CCN(c3nc4cc5c(cc4[nH]3)OCO5)CC2)c2ccccc21`, with 0.0093 µM; and `CS(=O)(=O)c1ccc2[nH]c(N3CCC4(CC3)OC(=O)c3ccccc34)nc2c1`, with 0.085 µM.
The same measure, in the same setting: for `CC(C)Cc1ccc2nc(N3CCC4(CC3)OC(=O)c3ccccc34)[nH]c2c1` the value was 0.0018 µM.
`O=C1OC2(CCN(c3nc4cccc(C(F)(F)F)c4[nH]3)CC2)c2ccccc21` had an IC50 in [1] of 0.083 µM.
On the same count and under the same terms, then `CNC(=O)c1ccc2nc(N3CCC4(CC3)OC(=O)c3ccccc34)[nH]c2c1`, with 0.02 µM; and `Cc1ccc2[nH]c(N3CCC4(CC3)OC(=O)c3ccccc34)nc2c1`, with 0.036 µM.
The same measure, in the same setting: for `COc1ccc2[nH]c(N3CCC4(CC3)OC(=O)c3ccccc34)nc2c1` the value was 0.037 µM; for `O=C(O)c1ccc2[nH]c(N3CCC4(CC3)OC(=O)c3ccccc34)nc2c1`, > 1 µM.
For `O=C1OC2(CCN(c3nc4cc(Cl)cc(Cl)c4[nH]3)CC2)c2ccccc21`, the IC50 in data set [1] was 0.0057 µM.
On the same count and under the same terms, for `O=C1OC2(CCN(c3nc4ccc([N+](=O)[O-])cc4[nH]3)CC2)c2ccccc21` the value was 0.01 µM; for `CS(=O)(=O)N1CC2(CCN(c3nc4ccccc4[nH]3)CC2)c2ccccc21`, > 1 µM; for `Cc1cccc2[nH]c(N3CCC4(CC3)OC(=O)c3ccccc34)nc12`, 0.074 µM.
`O=C1OC2(CCN(c3nc4cc5c(cc4[nH]3)OC(F)(F)O5)CC2)c2ccccc21`: the IC50 in [1] is 0.0022 µM.
Still for that read-out and setting: for `O=C1OC2(CCN(Cc3nc4ccccc4[nH]3)CC2)c2ccccc21` the value was 4.9 µM; for `O=C1OC2(CCN(c3nc4cccnc4[nH]3)CC2)c2ccccc21`, 1.6 µM; for `CN(C)C(=O)c1ccc2nc(N3CCC4(CC3)OC(=O)c3ccccc34)[nH]c2c1`, 0.058 µM.
In the case of `O=C1OC2(CCN(c3nc4cc(Cl)c(F)cc4[nH]3)CC2)c2ccccc21`, the IC50 in data set [1] stood at 0.0067 µM.
The same measure, in the same setting: then `CCOC(=O)c1ccc2nc(N3CCC4(CC3)OC(=O)c3ccccc34)[nH]c2c1`, with 0.002 µM; and `O=C1OC2(CCN(c3nc4cc(F)ccc4[nH]3)CC2)c2ccccc21`, with 0.028 µM.
What is called Kp is tissue or fluid exposure divided by exposure in the circulation. As to `COC(=O)c1ccc2[nH]c(N3CCC4(CC3)OC(=O)c3ccccc34)nc2c1`, the half-inhibitory concentration (IC50) in [1] was 0.0027 µM; in data set [2], > 10 µM; in data set [3], > 10 µM; in data set [4] it was > 10 µM; in [5], 0.0015 µM. For the same molecule, the Concentration in [6] stood at 3.2 µM. In [7], this molecule returned a plasma concentration of 0.1 µM. The molecule also had a Kp at 2 h in data set [8] of 0.08.
In the case of `O=C1OC2(CCN(c3nc4cc(-c5ccccc5)ccc4[nH]3)CC2)c2ccccc21`, the IC50 in data set [1] was 0.0024 µM; in data set [2] it was > 10 µM; in data set [3] it was > 10 µM; in data set [4] it was > 10 µM; in data set [5], 0.0018 µM. The molecule also displayed a Concentration in data set [6] of 1.8 µM. Also, in [7], the plasma concentration stood at 1.3 µM. The molecule further registered a Kp at 2 h in data set [8] of 0.35.
Regarding `O=C1O[C@]2(CC[C@H](c3nc4ncccc4[nH]3)CC2)c2ccccc21`, in data set [1], the IC50 came to 0.091 µM.
On the same count and under the same terms, for `CS(=O)(=O)Nc1ccc2nc(N3CCC4(CC3)OC(=O)c3ccccc34)[nH]c2c1` the value was 0.056 µM; for `O=C1OC2(CCN(c3nc4cc(F)c(F)cc4[nH]3)CC2)c2ccccc21`, 0.0048 µM.
`O=C1O[C@]2(CC[C@@H](c3nc4cccnc4[nH]3)CC2)c2ccccc21`: the IC50 in [1] was 1.4 µM.
Still for that read-out and setting: for `O=C1OC2(CCN(c3nc4c(F)cccc4[nH]3)CC2)c2ccccc21` the value was 0.5 µM.
The same measure, in the same setting: for `O=C1OC2(CCN(c3nc4ccc(Br)cc4[nH]3)CC2)c2ccccc21` the value was 0.01 µM; for `N#Cc1ccc2[nH]c(N3CCC4(CC3)OC(=O)c3ccccc34)nc2c1`, 0.019 µM.
In the case of `O=C1OC2(CCN(c3nc4cc(Cl)ccc4[nH]3)CC2)c2ccccc21`, the IC50 in data set [1] is 0.0066 µM; in data set [2], > 10 µM; in data set [3] it was > 10 µM; in [4] it was > 10 µM; in data set [5] it was 0.0012 µM. Besides, the Concentration in data set [6] is 27.8 µM. Moreover, the plasma concentration in data set [7] amounted to 25.6 µM.
Regarding `O=C1OC2(CCN(c3nc4cc(Cl)c(Cl)cc4[nH]3)CC2)c2ccccc21`, the IC50 in data set [1] was 0.0016 µM; in [2], > 10 µM; in data set [3], > 10 µM; in data set [4] it was > 10 µM; in [5], 0.0014 µM. The Concentration in data set [6] turned out to be 2.9 µM. Besides, in [7], the plasma concentration turned out to be 4.6 µM.
Molecule `COc1cccc2[nH]c(N3CCC4(CC3)OC(=O)c3ccccc34)nc12` showed an IC50 in data set [1] of 0.25 µM.
Same read-out and setting: for `O=C1OC2(CCN(c3nc4ccccc4s3)CC2)c2ccccc21` the value was > 10 µM.
On the same count and under the same terms, for `NC(=O)c1ccc2nc(N3CCC4(CC3)OC(=O)c3ccccc34)[nH]c2c1` the value was 0.11 µM; for `Cc1cc2nc(N3CCC4(CC3)OC(=O)c3ccccc34)[nH]c2cc1C`, 0.0092 µM.
Consider `CC(=O)Nc1ccc2nc(N3CCC4(CC3)OC(=O)c3ccccc34)[nH]c2c1`, for which, in [1], the IC50 is 0.13 µM.
As for `O=C1OC2(CCN(c3nc4cc(C(F)(F)F)ccc4[nH]3)CC2)c2ccccc21`, the IC50 was 0.0035 µM in data set [1]; > 10 µM in data set [2]; > 10 µM in data set [3]; > 10 µM in data set [4]; 0.0064 µM in data set [5]. In data set [6], this molecule displayed a Concentration of 15.3 µM. The same molecule returned a plasma concentration in data set [7] of 17.5 µM. In addition, in data set [9], the outcome was Active. Further, the Kp at 2 h in data set [8] came out at 0.31.
For the molecule `O=C1OC2(CCN(c3nc4cccc(Cl)c4[nH]3)CC2)c2ccccc21`, in data set [1], the IC50 was 0.051 µM.
On the same count and under the same terms, for `O=C1OC2(CCN(c3nc4c(-c5ccccc5)cccc4[nH]3)CC2)c2ccccc21` the value was 0.017 µM.
